Reference: PubChem BioAssay AID2060337 (Molecular Pharmacology Branch, DTP, NCI, 2025)

Test system: 832693-133-R-J1-PDC multi-cell spheroids, viability
Experiment: Anticancer human tumor 832693-133-R-J1-PDC patient-derived head and neck squamous carcinoma cell line growth inhibition [IpAb]
Details: for IC50: curve of first compound; for viability, T/C: stronger effect = lower value; active = viability on the fitted dose curve at most 10% of control; inactive = the rest
Procedure, shortened: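 Spheroids of 60% malignant cells, 25% HUVEC and 15% MSC were exposed to targeted agents combined with ipatasertib or abemaciclib. Doses started at or near clinical Cmax (10 microM when unknown) and fell in half-log steps.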

[1] = second compound 0.01 µM, first compound 0.0316 µM
[2] = second compound 0.01 µM, first compound 0.1 µM
[3] = second compound 0.01 µM, first compound 0.316 µM
[4] = second compound 0.01 µM, first compound 1 µM
[5] = second compound 0.01 µM, first compound 3.16 µM
[6] = second compound 0.01 µM, first compound 10 µM
[7] = second compound 0.0316 µM, first compound 0.0316 µM
[8] = second compound 0.0316 µM, first compound 0.1 µM
[9] = second compound 0.0316 µM, first compound 0.316 µM
[10] = second compound 0.0316 µM, first compound 1 µM
[11] = second compound 0.0316 µM, first compound 3.16 µM
[12] = second compound 0.0316 µM, first compound 10 µM
[13] = second compound 0.1 µM, first compound 0.0316 µM
[14] = second compound 0.1 µM, first compound 0.1 µM
[15] = second compound 0.1 µM, first compound 0.316 µM
[16] = second compound 0.1 µM, first compound 1 µM
[17] = second compound 0.1 µM, first compound 3.16 µM
[18] = second compound 0.1 µM, first compound 10 µM
[19] = second compound 0.316 µM, first compound 0.0316 µM
[20] = second compound 0.316 µM, first compound 0.1 µM
[21] = second compound 0.316 µM, first compound 0.316 µM
[22] = second compound 0.316 µM, first compound 1 µM
[23] = second compound 0.316 µM, first compound 3.16 µM
[24] = second compound 0.316 µM, first compound 10 µM
[25] = second compound 1 µM, first compound 0.0316 µM
[26] = second compound 1 µM, first compound 0.1 µM
[27] = second compound 1 µM, first compound 0.316 µM
[28] = second compound 1 µM, first compound 1 µM
[29] = second compound 1 µM, first compound 3.16 µM
[30] = second compound 1 µM, first compound 10 µM
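Also: spheroids exposed to the drugs for one week before the viability readout.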
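For viability, T/C in this document: 100% = DMSO vehicle control wells.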

C=CCn1c(=O)c2cnc(Nc3ccc(N4CCN(C)CC4)cc3)nc2n1-c1cccc(C(C)(C)O)n1 + CCN1CCN(Cc2ccc(Nc3ncc(F)c(-c4cc(F)c5nc(C)n(C(C)C)c5c4)n3)nc2)CC1
inactive: viability, T/C [1] 93.9% | viability, T/C [2] 66.6% | viability, T/C [3] 42.4% | viability, T/C [4] 28.9% | viability, T/C [5] 27.5% | viability, T/C [6] 13.9% | viability, T/C [7] 74.7% | viability, T/C [8] 68% | viability, T/C [9] 40.4% | viability, T/C [10] 33.2% | viability, T/C [11] 29.3% | viability, T/C [12] 14.9% | viability, T/C [13] 65.9% | viability, T/C [14] 51.8% | viability, T/C [15] 41.6% | viability, T/C [16] 33.3% | viability, T/C [17] 30.9% | viability, T/C [18] 19.1% | viability, T/C [19] 53.4% | viability, T/C [20] 52.9% | viability, T/C [21] 47.9% | viability, T/C [22] 37.4% | viability, T/C [23] 35.2% | viability, T/C [24] 25% | viability, T/C [25] 61.9% | viability, T/C [26] 65.9% | viability, T/C [27] 56.7% | viability, T/C [28] 53.6% | viability, T/C [29] 51.6% | viability, T/C [30] 23.8%
134 nM: IC50 (second compound 0.316 µM)
233 nM: IC50 (second compound 0.01 µM)
138 nM: IC50 (second compound 0.1 µM)
246 nM: IC50 (second compound 0.0316 µM)
2620 nM: IC50 (second compound 1 µM)

CC(C)n1nc(-c2ccc3oc(N)nc3c2)c2c(N)ncnc21 + CCN1CCN(Cc2ccc(Nc3ncc(F)c(-c4cc(F)c5nc(C)n(C(C)C)c5c4)n3)nc2)CC1
inactive: viability, T/C (second compound 0.01 µM, first compound 0.000316 µM) 83% | viability, T/C (second compound 0.01 µM, first compound 0.001 µM) 82.8% | viability, T/C (second compound 0.01 µM, first compound 0.00316 µM) 73.5% | viability, T/C (second compound 0.01 µM, first compound 0.01 µM) 77.8% | viability, T/C [1] 50.6% | viability, T/C [2] 53.2% | viability, T/C (second compound 0.0316 µM, first compound 0.000316 µM) 71.8% | viability, T/C (second compound 0.0316 µM, first compound 0.001 µM) 73.6% | viability, T/C (second compound 0.0316 µM, first compound 0.00316 µM) 64% | viability, T/C (second compound 0.0316 µM, first compound 0.01 µM) 61% | viability, T/C [7] 52.4% | viability, T/C [8] 38.4% | viability, T/C (second compound 0.1 µM, first compound 0.000316 µM) 61% | viability, T/C (second compound 0.1 µM, first compound 0.001 µM) 56% | viability, T/C (second compound 0.1 µM, first compound 0.00316 µM) 52.7% | viability, T/C (second compound 0.1 µM, first compound 0.01 µM) 53% | viability, T/C [13] 43% | viability, T/C [14] 34.5% | viability, T/C (second compound 0.316 µM, first compound 0.000316 µM) 50.6% | viability, T/C (second compound 0.316 µM, first compound 0.001 µM) 55.7% | viability, T/C (second compound 0.316 µM, first compound 0.00316 µM) 49% | viability, T/C (second compound 0.316 µM, first compound 0.01 µM) 42.3% | viability, T/C [19] 42.9% | viability, T/C [20] 34.8% | viability, T/C (second compound 1 µM, first compound 0.000316 µM) 59.5% | viability, T/C (second compound 1 µM, first compound 0.001 µM) 50.3% | viability, T/C (second compound 1 µM, first compound 0.00316 µM) 41.6% | viability, T/C (second compound 1 µM, first compound 0.01 µM) 38.2% | viability, T/C [25] 39.8% | viability, T/C [26] 38.6%
0.859 nM: IC50 (second compound 1 µM)
36.3 nM: IC50 (second compound 0.0316 µM)
10.6 nM: IC50 (second compound 0.1 µM)
2.03 nM: IC50 (second compound 0.316 µM)
> 100 nM: IC50 (second compound 0.01 µM)

CC1(C)CCC(CN2CCN(c3ccc(C(=O)NS(=O)(=O)c4ccc(NCC5CCOCC5)c([N+](=O)[O-])c4)c(Oc4cnc5[nH]ccc5c4)c3)CC2)=C(c2ccc(Cl)cc2)C1 + CCN1CCN(Cc2ccc(Nc3ncc(F)c(-c4cc(F)c5nc(C)n(C(C)C)c5c4)n3)nc2)CC1
4600 nM: IC50 (second compound 1 µM)
6550 nM: IC50 (second compound 0.0316 µM)
4120 nM: IC50 (second compound 0.316 µM)
active: viability, T/C [24] 9.24% | viability, T/C [30] 5.47%
5410 nM: IC50 (second compound 0.01 µM)
4190 nM: IC50 (second compound 0.1 µM)
inactive: viability, T/C [1] 93.7% | viability, T/C [2] 104% | viability, T/C [3] 102% | viability, T/C [4] 96.1% | viability, T/C [5] 75.2% | viability, T/C [6] 21.2% | viability, T/C [7] 89% | viability, T/C [8] 93.9% | viability, T/C [9] 85.8% | viability, T/C [10] 86.5% | viability, T/C [11] 83.6% | viability, T/C [12] 30.4% | viability, T/C [13] 73.1% | viability, T/C [14] 69% | viability, T/C [15] 78.1% | viability, T/C [16] 71.2% | viability, T/C [17] 60.4% | viability, T/C [18] 17.7% | viability, T/C [19] 55.6% | viability, T/C [20] 61% | viability, T/C [21] 51.9% | viability, T/C [22] 67.3% | viability, T/C [23] 75.5% | viability, T/C [25] 63.9% | viability, T/C [26] 72.1% | viability, T/C [27] 80.2% | viability, T/C [28] 68.5% | viability, T/C [29] 72.9%

CCCS(=O)(=O)Nc1ccc(F)c(C(=O)c2c[nH]c3ncc(-c4ccc(Cl)cc4)cc23)c1F + CCN1CCN(Cc2ccc(Nc3ncc(F)c(-c4cc(F)c5nc(C)n(C(C)C)c5c4)n3)nc2)CC1
5060 nM: IC50 (second compound 0.01 µM)
inactive: viability, T/C [1] 97.9% | viability, T/C [2] 105% | viability, T/C [3] 100% | viability, T/C [4] 87.6% | viability, T/C [5] 63.6% | viability, T/C [6] 30.9% | viability, T/C [7] 88.7% | viability, T/C [8] 88.4% | viability, T/C [9] 81.5% | viability, T/C [10] 74.9% | viability, T/C [11] 51.4% | viability, T/C [12] 28.3% | viability, T/C [13] 66.3% | viability, T/C [14] 60.1% | viability, T/C [15] 64.9% | viability, T/C [16] 51.9% | viability, T/C [17] 35.7% | viability, T/C [18] 15.2% | viability, T/C [19] 44.8% | viability, T/C [20] 51.9% | viability, T/C [21] 40.4% | viability, T/C [22] 36.9% | viability, T/C [23] 26.6% | viability, T/C [24] 13.4% | viability, T/C [25] 50.5% | viability, T/C [26] 49.6% | viability, T/C [27] 44.2% | viability, T/C [28] 24.8% | viability, T/C [29] 18.8% | viability, T/C [30] 13.3%
3490 nM: IC50 (second compound 0.0316 µM)
< 31.6 nM: IC50 (second compound 0.316 µM)
1240 nM: IC50 (second compound 0.1 µM)
77.5 nM: IC50 (second compound 1 µM)

Cn1cnc2c(F)c(Nc3ccc(Br)cc3Cl)c(C(=O)NOCCO)cc21 + CCN1CCN(Cc2ccc(Nc3ncc(F)c(-c4cc(F)c5nc(C)n(C(C)C)c5c4)n3)nc2)CC1
170 nM: IC50 (second compound 1 µM)
49 nM: IC50 (second compound 0.0316 µM)
inactive: viability, T/C (second compound 0.01 µM, first compound 0.00949 µM) 62.4% | viability, T/C (second compound 0.01 µM, first compound 0.03 µM) 58.7% | viability, T/C (second compound 0.01 µM, first compound 0.0949 µM) 50.4% | viability, T/C (second compound 0.01 µM, first compound 0.3 µM) 41.3% | viability, T/C (second compound 0.01 µM, first compound 0.949 µM) 34% | viability, T/C (second compound 0.01 µM, first compound 3 µM) 14.1% | viability, T/C (second compound 0.0316 µM, first compound 0.00949 µM) 54.3% | viability, T/C (second compound 0.0316 µM, first compound 0.03 µM) 57.5% | viability, T/C (second compound 0.0316 µM, first compound 0.0949 µM) 44.5% | viability, T/C (second compound 0.0316 µM, first compound 0.3 µM) 35.5% | viability, T/C (second compound 0.0316 µM, first compound 0.949 µM) 29.1% | viability, T/C (second compound 0.0316 µM, first compound 3 µM) 13.4% | viability, T/C (second compound 0.1 µM, first compound 0.00949 µM) 47.2% | viability, T/C (second compound 0.1 µM, first compound 0.03 µM) 47.4% | viability, T/C (second compound 0.1 µM, first compound 0.0949 µM) 36.4% | viability, T/C (second compound 0.1 µM, first compound 0.3 µM) 32.1% | viability, T/C (second compound 0.1 µM, first compound 0.949 µM) 24.4% | viability, T/C (second compound 0.1 µM, first compound 3 µM) 12.6% | viability, T/C (second compound 0.316 µM, first compound 0.00949 µM) 54.7% | viability, T/C (second compound 0.316 µM, first compound 0.03 µM) 43.9% | viability, T/C (second compound 0.316 µM, first compound 0.0949 µM) 36.1% | viability, T/C (second compound 0.316 µM, first compound 0.3 µM) 34.8% | viability, T/C (second compound 0.316 µM, first compound 0.949 µM) 25.3% | viability, T/C (second compound 0.316 µM, first compound 3 µM) 15.1% | viability, T/C (second compound 1 µM, first compound 0.00949 µM) 64.6% | viability, T/C (second compound 1 µM, first compound 0.03 µM) 58.2% | viability, T/C (second compound 1 µM, first compound 0.0949 µM) 51.5% | viability, T/C (second compound 1 µM, first compound 0.3 µM) 47.9% | viability, T/C (second compound 1 µM, first compound 0.949 µM) 40.7% | viability, T/C (second compound 1 µM, first compound 3 µM) 28.2%
15.3 nM: IC50 (second compound 0.316 µM)
118 nM: IC50 (second compound 0.01 µM)
< 9.49 nM: IC50 (second compound 0.1 µM)
